Columns and labels:
Leishmania infantum [1] = experiment: Antileishmanial activity against promastigote form of Leishmania infantum MCAN_UY_2015_bPL7 isolate assessed as decrease in parasite viability measured after 72 hrs by resazurin assay
Leishmania infantum [2] = experiment: Antileishmanial activity against promastigote form of Leishmania infantum MCAN_UY_2015_mCO8 isolate assessed as decrease in parasite viability measured after 72 hrs by resazurin assay
Leishmania infantum [3] = experiment: Antileishmanial activity against promastigote form of Leishmania infantum MCAN_UY_2015_bCH11 isolate assessed as decrease in parasite viability measured after 72 hrs by resazurin assay
Leishmania infantum [4] = experiment: Antileishmanial activity against promastigote form of Leishmania infantum MCAN_UY_2015_gPL8 isolate assessed as decrease in parasite viability measured after 72 hrs by resazurin assay
Leishmania infantum [5] = experiment: Antileishmanial activity against promastigote form of Leishmania infantum MHOM/BR/2002/LPC-RPV assessed as decrease in parasite viability measured after 72 hrs by resazurin assay
Leishmania infantum [6] = experiment: Antileishmanial activity against promastigote form of Leishmania infantum MCAN_UY_2015_gCH2 isolate assessed as decrease in parasite viability measured after 72 hrs by resazurin assay
Leishmania infantum [7] = experiment: Antileishmanial activity against amastigote form of Leishmania infantum MCAN_UY_2015_bPL7 isolate assessed as decrease in parasite viability measured after 72 hrs by resazurin assay; type: functional, organism-based
Leishmania infantum [8] = experiment: Antileishmanial activity against amastigote form of Leishmania infantum MHOM/BR/2002/LPC-RPV assessed as decrease in parasite viability measured after 72 hrs by resazurin assay; type: functional, organism-based
Leishmania infantum [9] = experiment: Antileishmanial activity against amastigote form of Leishmania infantum MCAN_UY_2015_bCH11 isolate assessed as decrease in parasite viability measured after 72 hrs by resazurin assay; type: functional, organism-based
Leishmania infantum [10] = experiment: Antileishmanial activity against amastigote form of Leishmania infantum MCAN_UY_2015_gPL8 isolate assessed as decrease in parasite viability measured after 72 hrs by resazurin assay; type: functional, organism-based
Leishmania infantum [11] = experiment: Antileishmanial activity against amastigote form of Leishmania infantum MCAN_UY_2015_gCH2 isolate assessed as decrease in parasite viability measured after 72 hrs by resazurin assay; type: functional, organism-based
Leishmania infantum [12] = experiment: Antileishmanial activity against amastigote form of Leishmania infantum MCAN_UY_2015_mCO8 isolate assessed as decrease in parasite viability measured after 72 hrs by resazurin assay; type: functional, organism-based

Molecule	IC50 (Leishmania infantum [1]) [µM]	IC50 (Leishmania infantum [2]) [µM]	IC50 (Leishmania infantum [3]) [µM]	IC50 (Leishmania infantum [4]) [µM]	IC50 (Leishmania infantum [5]) [µM]	IC50 (Leishmania infantum [6]) [µM]	IC50 (Leishmania infantum [7]) [µM]	IC50 (Leishmania infantum [8]) [µM]	IC50 (Leishmania infantum [9]) [µM]	IC50 (Leishmania infantum [10]) [µM]	IC50 (Leishmania infantum [11]) [µM]	IC50 (Leishmania infantum [12]) [µM]
C[C@@H]1[C@H](O)[C@@H](C)/C=C/C=C/C=C/C=C/C=C/C=C/C=C/[C@H](O[C@@H]2O[C@H](C)[C@@H](O)[C@H](N)[C@@H]2O)C[C@@H]2O[C@](O)(C[C@@H](O)C[C@@H](O)[C@H](O)CC[C@@H](O)C[C@@H](O)CC(=O)O[C@H]1C)C[C@H](O)[C@H]2C(=O)O [AMPHOTERICIN B]	24.9	12.7	24.6	24.4	6.5	24.8						
CC1CS(=O)(=O)CCN1/N=C/c1ccc([N+](=O)[O-])o1 (stereo not given) [NIFURTIMOX]	6.5	6.7	6.5	6	6.3	6.7						
CC[C@H](C)C(=O)O[C@H]1C[C@@H](C)C=C2C=C[C@H](C)[C@H](CC[C@@H]3C[C@@H](O)CC(=O)O3)[C@H]21 [LOVASTATIN]	25.3	25.4	25.3	25.4	12.9	25.3						
CCCCCCCCCCCCCCCCOP(=O)([O-])OCC[N+](C)(C)C [MILTEFOSINE]	3.6	3.4	3.8	4.1	5.3	4.1						
MEGLUMINE ANTIMONATE							50.2	50.1	50.5	50.1	50.4	51
